Laboratory results taken from paper PMC10914731, “Homo-BacPROTAC-induced degradation of ClpC1 as a strategy against drug-resistant mycobacteria” (Nature Communications, 2024).
Values after ≈ are worked out from the molar mass of the structure shown. Values joined by “and” are separate entries in the source; they are usually repeats but may differ in a detail not shown here. Identical values can stand only once. Like-named read-outs stand apart in the source and are kept apart here. *1 amine or outer side, *2 acyl side, *3 side chain or, on linkers, in order; H or OH if unused. Where a SMILES comes first, the peptide text is derived from it. [ ]: non-standard residue; d: D form. X1 = C#CCn1cc(C[C@H](N[*:1])C(=O)[*:2])c2ccccc21; NMeLeu(5-OH,4R) = CN[C@@H](C[C@@H](C)CO)C(=O)O; Phe(βR-OMe) = CO[C@H](c1ccccc1)[C@H](N)C(=O)O; NMeL = CN[C@@H](CC(C)C)C(=O)O

What was measured:
[1] = system: Salmonella typhimurium; assay: MIC ESKAPES panel, Salmonella typhimurium; format: cell-based
Description: Minimum inhibitory concentration (MIC) against ESKAPES panel of Gram positive and Gram negative pathogens (Enterococcus faecium, Staphylococcus aureus, Klebsiella pneumoniae, Acinetobacter baumannii, Pseudomonas aeruginosa, Enterobacter cloacae and Salmonella typhimurium [ESKAPES panel]) were determined at the FNDR by the standard broth dilution method [CLSI, M100]. […] Mueller Hinton broth (MHB) medium was used to grow ESKAPES panel strains. The individual cultures were added as 200 μL (inoculum of 3–7 × 10^5 cfu/ml) to the respective assay plates in each well to all columns, except the media control (200 μL of medium). […] The assay plates were incubated at 37 °C, and the results were noted on the 2nd day as turbidometric readout. The clear wells indicated inhibition of growth, while the turbid wells indicated uninhibited growth.

[2] = system: Mtb H37Rv; assay: Minimum bactericidal concentration (MBC), Mtb H37Rv; format: cell-based, Mycobacterium tuberculosis; conditions: for MBC: Mycobacterium tuberculosis, H37RV
[3] = system: Mycobacterium avium; assay: microbe, parasite or virus in culture; format: cell-based
[4] = Hepatocyte stability, mice; format: in vitro ADME; conditions: mouse, pH 7.4
Summary of the method: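 1 µM cpd (DMSO <0.05% final), cryopreserved hepatocytes ~1e6 cells/mL, 50% serum, pH 7.4, 37 °C/5–10% CO2; up to 6 h, 6 timepoints; ACN quench, HPLC-MS/MS; t1/2 → CL via well-stirred model, % Qh.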

[5] = format: in vitro ADME, Rat
Summary of the method: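 Compound (1 µmol/l) was incubated at 37 °C with 0.5 mg/ml liver microsomes in 100 mM Tris-HCl pH 7.5, 6.5 mM MgCl2 and 1 mM NADPH. Reactions were quenched with acetonitrile at several time points and parent remaining quantified by HPLC-MS/MS; first-order half-lives were converted to clearance as %Qh via the well-stirred model.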

[6] = system: Mtb ATCC 35825; assay: microbe, parasite or virus in culture; format: cell-based
[7] = in vivo; format: in vivo, BALB/cAnNCrl mice
Description: The in-life experimental procedures were conducted in strict compliance with German and European animal welfare legislation in an AAALAC-accredited facility. Male BALB/cAnNCrl mice (Charles River Laboratories Research Models and Services, 97633 Sulzfeld, Germany) were used. Animals were 9 weeks old at dosing with a body weight of 21.6–24.3 g. Animals were delivered free of pathogens according to FELASA recommendations with a health certificate provided by the breeder. Upon receipt, the state of health and sex was checked. Animals acclimatized for at least 5 days before the commencement of the in-life phase. During acclimation, animals were group-housed in individually ventilated cages, on birch wood granulate bedding with species-specific enrichment (nesting material, mouse igloo, gnawing wood). During experimental conduct, animals were housed in conventional cages with elevated grid floors. Grid floor was used to avoid contamination with test item material excreted via urine and feces and subsequent reuptake during fur grooming. No bedding and enrichment were provided except a cage divider, which can be used as a shelter. Animals always had unlimited access to food and water and received a pelleted, total pathogen-free maintenance diet and tap drinking water, sterilized by filter.
On the day before dosing, test item(s) were suspended in kleptose (20% in WFI) under continuous stirring (3.0 mg/ml). Following 2 min vortexing and 1 h stirring, the formulation was sonicated at 60 °C for 30 min and stirred at ambient temperature overnight. Before dosing, the formulation was vortexed for 2 min followed by ultraturrax treatment for 2 min.
Male BALB/cAnNCrl mice (n = 3 per test item and administration route) received a bolus dose of the formulated test item(s) (1 mg/kg iv, 30 mg/kg po) at t = 0 h, and whole blood samples were collected subsequently (35 µl at 0.1 (iv) / 0.25 (po), 0.5, 1, 2, 4, 6 h; 600 µl at sacrifice after 24 h). Animals were euthanized by exsanguination in deep isoflurane anesthesia. Whole blood samples were immediately stored on ice at about 4 °C. Plasma was separated by centrifugation at approximately 10,000 × g for 5 m at +4 °C. Centrifugation of each blood sample was started within 10 m after collection. A single aliquot of at least 15 µL of plasma was prepared and immediately stored at −20 ± 5 °C.
Sample proteins were precipitated with ACN (1 + 12, v/v) containing internal standard, and supernatants analyzed by quantitative UPLC-MS/MS: Phenomenex Luna Omega C18, 2.1 × 50 mm, 1.6 µm, 40 °C, gradient between 10% - 90% ACN with 0.1% formic acid. LogD determination: Lipophilicity of the test items, expressed as chromLogD7.5, was assessed by measuring their chromatographic retention times on C18-material. The chromatographic retention versus logD7.5 values of a series of thirteen n-alkan-2-ones (2-butanone – 2-hexadecanone) served as lipophilicity calibration.

[8] = target: ClpC1-NTD substrate, M. tuberculosis ClpC1P1P2 (Mycobacterium tuberculosis, UniProt P9WPC9); assay: biochemical; format: biochemical
Chain of ClpC1-NTD substrate, M. tuberculosis ClpC1P1P2 (P9WPC5 whole entry): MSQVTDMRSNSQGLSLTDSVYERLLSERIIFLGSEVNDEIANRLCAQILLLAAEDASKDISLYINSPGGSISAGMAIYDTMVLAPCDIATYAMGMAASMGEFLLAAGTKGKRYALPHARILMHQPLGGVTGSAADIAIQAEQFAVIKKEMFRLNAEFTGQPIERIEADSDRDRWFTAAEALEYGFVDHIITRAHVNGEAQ
Chain of ClpC1-NTD substrate, M. tuberculosis ClpC1P1P2 (P9WPC9 whole entry): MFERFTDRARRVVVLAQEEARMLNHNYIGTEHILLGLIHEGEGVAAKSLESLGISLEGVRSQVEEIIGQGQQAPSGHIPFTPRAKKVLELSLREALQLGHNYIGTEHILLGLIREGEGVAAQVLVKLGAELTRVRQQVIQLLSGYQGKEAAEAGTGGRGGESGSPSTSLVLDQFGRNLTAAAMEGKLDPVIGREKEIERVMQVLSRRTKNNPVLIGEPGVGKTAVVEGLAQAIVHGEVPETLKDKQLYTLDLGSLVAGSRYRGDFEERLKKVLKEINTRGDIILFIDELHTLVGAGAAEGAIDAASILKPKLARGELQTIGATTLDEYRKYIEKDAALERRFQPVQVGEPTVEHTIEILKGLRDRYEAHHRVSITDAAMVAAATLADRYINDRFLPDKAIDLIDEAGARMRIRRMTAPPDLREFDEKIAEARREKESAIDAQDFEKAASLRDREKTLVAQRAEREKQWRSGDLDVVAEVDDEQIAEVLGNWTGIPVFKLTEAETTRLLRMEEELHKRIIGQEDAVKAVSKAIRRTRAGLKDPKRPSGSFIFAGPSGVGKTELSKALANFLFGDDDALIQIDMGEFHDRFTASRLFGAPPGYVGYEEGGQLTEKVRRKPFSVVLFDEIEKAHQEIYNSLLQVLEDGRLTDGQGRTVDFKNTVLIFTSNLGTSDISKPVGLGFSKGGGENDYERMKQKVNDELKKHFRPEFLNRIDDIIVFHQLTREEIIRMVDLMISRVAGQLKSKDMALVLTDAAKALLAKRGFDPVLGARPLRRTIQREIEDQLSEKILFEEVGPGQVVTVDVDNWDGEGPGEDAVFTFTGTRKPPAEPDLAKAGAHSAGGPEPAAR
Chain of ClpC1-NTD substrate, M. tuberculosis ClpC1P1P2 (P9WPC3 whole entry, further chain): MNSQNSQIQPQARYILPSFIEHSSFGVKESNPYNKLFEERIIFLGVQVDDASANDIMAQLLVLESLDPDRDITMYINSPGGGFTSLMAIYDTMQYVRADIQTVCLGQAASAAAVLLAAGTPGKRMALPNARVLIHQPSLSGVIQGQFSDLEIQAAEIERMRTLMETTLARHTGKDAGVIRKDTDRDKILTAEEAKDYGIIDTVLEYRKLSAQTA

[9] = Salmonella enterica, TYPHIMURIUM, Gram negative, n = 3 well replicates
[10] = Salmonella enterica, TYPHIMURIUM, Gram-Negative Bacteria, replicates 1-3
[11] = read-out: MBC (from Set 3) Mtb H37Rv
[12] = Experiment 2, three replicate columns
[13] = Experiment 2, three replicate columns, read-out: MIC (µM) Mycobacterium avium
[14] = Mycobacterium avium, Experiment 1, read-out: MIC Mycobacterium avium
[15] = Mycobacterium avium, Experiment 2, three replicate columns, read-out: MIC (µM) Mycobacterium avium
[16] = Mycobacterium avium, Experiment 2, three replicate columns, read-out: MIC (µg/ml) Mycobacterium avium
[17] = Mycobacterium avium, mean ± SD, read-out: MIC Mycobacterium avium
[18] = Mycobacterium tuberculosis, ATCC35825, mean, n = 2 well replicates
[19] = Mycobacterium tuberculosis, ATCC35825, single well replicates
[20] = single well replicates, listed as 12 (UdSBI-4377)
[21] = male, BALB/cAnNCrl, mouse, in vivo, po
[22] = oral gavage 30 mg/kg, mice, Mean, BLOQ <1.00 nmol/L
[23] = oral gavage, individual animals 1-3
[24] = oral gavage, individual animals 1-3, BLOQ <1.00 nmol/L

In the case of `COC(c1ccccc1)C1NC(=O)C(C)NC(=O)C(CC(C)CO)N(C)C(=O)C(Cc2cn(C)c3ccccc23)NC(=O)C(Cc2cn(CCCCCn3cc(CC4NC(=O)C(CC(C)C)N(C)C(=O)C(C(C)C)NC(=O)C(C(OC)c5ccccc5)NC(=O)C(C)NC(=O)C(CC(C)CO)N(C)C(=O)C(Cc5cn(C)c6ccccc56)NC4=O)nn3)nn2)NC(=O)C(CC(C)C)N(C)C(=O)C(C(C)C)NC1=O` (centres unmarked) [Compound 12], the MIC ([1]; Gram-Negative Bacteria, replicates 1-3, listed as 12 (UdSBI-4377)) is reported as >50 µM, the MIC [1, 9] is reported as > 50 µM and the MIC [1, 10] is reported as > 99 µg/mL. For the same molecule, the “colony growth after replating (MBC assay)” value [2] was “did not form any colonies at concentrations at or above the MIC value”, the MBC [2, 11] was 0.1 µM and 0.2 µg/mL and the MBC ([2]; read-out: MBC Mtb H37Rv) was 0.1 µM and 0.2 µg/mL. The MIC ([3]; Experiment 1, listed as 12 (UdSBI-4377), read-out: MIC Mycobacterium avium) was >50 µM, the “MIC (µg/ml) Mycobacterium avium” value [3, 12] was >99.02 µg/mL and the MIC [3, 13] was >50 µM. For the same molecule, the MIC [3, 14] was > 99 µg/mL, the MIC [3, 15] was > 50 µM and the MIC [3, 16] was > 99 µg/mL. For the same molecule, the MIC [3, 17] was > 50 µM, the “Hepatocyte Mice” value [4] was 15 %Qh and the “Microsomal Stability Rat” value ([5]; rat, microsomes, pH 7.5) was < 23 %Qh. For the same molecule, the “Microsomal Stability Rat QH” value ([5]; rat, microsomes, pH 7.5) was <23.1%, the MIC [6, 18] was < 0.1 µM and < 0.2 µg/mL and the MIC [6, 19] was < 0.19 µg/mL and < 0.1 µM. For the same molecule, the MIC [6, 20] was <0.1 µM, the “MIC Mtb ATCC 35825” value [6, 20] was <0.19 µg/mL and the AUC0-inf/Dose [7, 21] was 62.6 h*nM/nmol/kg. It also gave an AUC0-t/Dose [7, 21] of 45.5 h*nM/nmol/kg, a BA [7, 21] of 0.7% and a Cmax/Dose [7, 21] of 2.56 nM/nmol/kg. It also gave a DC50 ([8]; read-out: DC50, Mean) of 7.1 µM.
In the case of `C#CCn1cc(C[C@@H]2NC(=O)[C@H](C(C)C)NC(=O)[C@H](CC(C)C)N(C)C(=O)[C@H](C(C)C)NC(=O)[C@H]([C@H](OC)c3ccccc3)NC(=O)[C@H](C)NC(=O)[C@H](C[C@@H](C)CO)N(C)C2=O)c2ccccc21` [Compound 5] (cyclo(A[Phe(βR-OMe)]V[NMeL]V[X1][NMeLeu(5-OH,4R)])), the MIC ([1]; Gram-Negative Bacteria, replicates 1-3) is reported as >50 µM, the MIC [1, 9] is reported as > 50 µM and the MIC [1, 10] is reported as > 47 µg/mL. The MBC [2, 11] was 6.25 µM and 5.88 µg/mL, the MBC ([2]; individual example, read-out: MBC Mtb H37Rv) was 6.3 µM and 5.9 µg/mL and the MIC ([3]; Experiment 1, read-out: MIC Mycobacterium avium) was 6.3 µM. For the same molecule, the “MIC (µg/ml) Mycobacterium avium” value [3, 12] was 5.88 µg/mL (≈ 6.25 µM), the MIC [3, 13] was 6.25 µM and the MIC [3, 14] was 5.9 µg/mL. It also gave an MIC [3, 15] of 6.25 µM, an MIC [3, 16] of 5.88 µg/mL and an MIC [3, 17] of 6.3 µM. The “Hepatocyte Mice” value [4] was 58 %Qh, the “Microsomal Stability Rat QH” value ([5]; Rat) was >87.900% and the “Microsomal Stability Rat” value ([5]; clearance in microsomes) was > 88 %Qh. For the same molecule, the MIC [6, 18] was 0.2 µM and 0.2 µg/mL, the MIC [6, 19] was 0.18 µg/mL and 0.19 µM and the MIC ([6]; single well replicates) was 0.19 µM (≈ 0.179 µg/mL). For the same molecule, the “MIC Mtb ATCC 35825” value ([6]; single well replicates) was 0.18 µg/mL (≈ 0.191 µM), the half-life ([7]; male, BALB/cAnNCrl, mouse, in vivo, po, […], oral gavage, individual animals 1-3) was 36.5 min and the tmax ([7]; male, BALB/cAnNCrl, mouse, in vivo, po, […], oral gavage, individual animals 1-3, read-out: tmax) was 60 min. The half-life ([7]; male, BALB/cAnNCrl, mouse, in vivo, po, […], oral gavage, mice, Mean) was 34.7 min, the tmax ([7]; male, BALB/cAnNCrl, mouse, in vivo, po, […], oral gavage, mice, Mean, read-out: tmax) was 100 min and the “Plasma concentration 24 h” value ([7]; mouse, in vivo, po) was “BLOQ”. For the same molecule, the “Plasma concentration 0.5 h” value [7, 22] was 11.7 nM, the “Plasma concentration 1 h” value [7, 22] was 15.5 nM and the “Plasma concentration 2 h” value [7, 22] was 18.0 nM. The “Plasma concentration 4 h” value [7, 22] was 1.62 nM, the “Plasma concentration 6 h” value [7, 22] was 1.76 nM and the “Plasma concentration 24 h” value [7, 22] was 4.22 nM. The “Plasma concentration […]” value [7, 22] was 12.2 nM, the AUC0-inf/Dose [7, 23] was 3.14 h*nM/nmol/kg and 1.57 h*nM/nmol/kg and 1.80 h*nM/nmol/kg and the AUC0-t/Dose [7, 23] was 3.02 h*nM/nmol/kg and 1.53 h*nM/nmol/kg and 1.74 h*nM/nmol/kg. For the same molecule, the Cmax/Dose [7, 23] was 0.480 nM/nmol/kg and 0.558 nM/nmol/kg and 0.684 nM/nmol/kg, the t1/2 [7, 23] was 34.6 min and 33.1 min and the tmax [7, 23] was 120 min. For the same molecule, the “Plasma concentration 0.5 h” value [7, 24] was 13.0 nM and 10.7 nM and 11.4 nM, the “Plasma concentration 1 h” value [7, 24] was 15.3 nM and 15.7 nM and 15.5 nM and the “Plasma concentration 2 h” value [7, 24] was 14.5 nM and 17.8 nM and 21.8 nM. The “Plasma concentration 4 h” value [7, 24] was 1.49 nM and 1.61 nM and 1.76 nM, the “Plasma concentration 6 h” value [7, 24] was 1.54 nM and 1.59 nM and 2.14 nM and the “Plasma concentration 24 h” value [7, 24] was 4.22 nM. For the same molecule, the “Plasma concentration […]” value [7, 24] was 14.2 nM and 11.7 nM and 10.6 nM, the BA ([7]; oral gavage, mice (compound 12: from Animal 2 only; compound 6: maximum potential value)) was 1.2% and the AUC0-inf/Dose ([7]; oral gavage, mice, Mean) was 2.17 h*nM/nmol/kg. The Cmax/Dose ([7]; oral gavage, mice, Mean) was 0.574 nM/nmol/kg, the AUC0-t/Dose ([7]; oral gavage, mice, Mean (compound 6: maximum potential value with 1 nM for each time point)) was 2.10 h*nM/nmol/kg and the DC50 ([8]; Mtb, Measurement 1-4, read-out: DC50, single measurements) was > 100 µM. The DC50 ([8]; Mtb, mean of the measurements, read-out: DC50, Mean) was > 100 µM.
